# Measurements published in US8952024B2, “Herbicidal pyrimidone derivatives” (E I du Pont de Nemours and Company, priority 2009, dated 2015).
# Assays:
# Assay type in all cases: in vivo
# rice (Oryza sativa) = assay: Test B flooded paddy test; settings: for Plant response rating, Rice: Flood (flooded paddy test), 13 to 15 days
# Method in brief: (§1)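 Each compound is added to standing floodwater (3 cm above soil, maintained) in pots of 2-leaf-stage plants; greenhouse exposure lasts 13–15 d before visual comparison with controls on a 0–100 control scale.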
# [1] = test system: umbrella sedge (Cyperus difformis); assay: Test B flooded paddy test; settings: for Plant response rating, Sedge, Umbrella: Flood (flooded paddy test), 13 to 15 days
# Method in brief: as §1
# [2] = test system: giant foxtail (Setaria faberii); assay: Test B pre-/postemergence plant response
# Method in brief: (§2)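 Each species received compound formulated in non-phytotoxic solvent with surfactant, either at planting into a loam and sand blend or as a foliar spray once plants reached 2 to 18 cm in peat-based medium. Plants stayed in the greenhouse 13 to 15 days before visual evaluation against controls, scored 0 (no effect) to 100 (complete control).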
# corn (Zea mays) = assay: Test B pre-/postemergence plant response
# Method in brief: as §2
# [3] = test system: pigweed (Amaranthus retroflexus); assay: Test B pre-/postemergence plant response
# Method in brief: as §2
# [4] = test system: Surinam grass (Brachiaria decumbens); assay: Test B pre-/postemergence plant response
# Method in brief: as §2
# [5] = test system: ragweed (common ragweed, Ambrosia elatior); assay: Test B pre-/postemergence plant response
# Method in brief: as §2
# [6] = test system: johnsongrass (Sorghum halepense); assay: Test B pre-/postemergence plant response
# Method in brief: as §2
# wild oat (Avena fatua) = assay: Test B pre-/postemergence plant response
# Method in brief: as §2
# [7] = test system: lambsquarters (Chenopodium album); assay: Test B pre-/postemergence plant response
# Method in brief: as §2
# [8] = test system: goosegrass (Eleusine indica); assay: Test B pre-/postemergence plant response
# Method in brief: as §2
# [9] = test system: blackgrass (Alopecurus myosuroides); assay: Test B pre-/postemergence plant response
# Method in brief: as §2
# [10] = test system: green foxtail (Setaria viridis); assay: Test B pre-/postemergence plant response
# Method in brief: as §2
# [11] = 250 g ai/ha, flooded paddy test, visual rating on 0 to 100 scale (0 no effect, 100 complete control) after 13 to 15 days
# [12] = 62 g ai/ha, scale of 0 to 100 where 0 is no effect and 100 is complete control
# [13] = 125 g ai/ha, scale 0 to 100, 0 is no effect, 100 is complete control
# [14] = Flood, 31 g ai/ha, scale 0 to 100 (0 no effect, 100 complete control)
# [15] = Postemergence, 31 g ai/ha, 0 to 100 scale (0 no effect, 100 complete control)
# [16] = Postemergence, 62 g ai/ha, scale 0 to 100 (0 no effect, 100 complete control)
# [17] = Postemergence, 125 g ai/ha, scale 0 (no effect) to 100 (complete control), 13 to 15 days
# [18] = Postemergence, 250 g ai/ha, scale 0 to 100 (0 no effect, 100 complete control), 13 to 15 days
# [19] = Preemergence, 31 g ai/ha, scale 0 to 100 (0 no effect, 100 complete control)
# [20] = Preemergence, 62 g ai/ha, scale 0 to 100 (0 no effect, 100 complete control)
# [21] = Preemergence, 125 g ai/ha, scale 0 to 100, 0 no effect, 100 complete control
# [22] = Preemergence, 250 g ai/ha, 0 to 100 scale
smiles,measurement,setting,value
CCCCn1c(-c2cc(F)cc(F)c2)ncc(C(=O)C2=C(O)C3CCC(C3)C2=O)c1=O (stereo not drawn) [Compound 245],"Plant response rating, Flood, Rice",rice (Oryza sativa); [11],90
same,"Plant response rating, Rice",rice (Oryza sativa); [12],50
same,"Plant response rating, Rice",rice (Oryza sativa); [13],50
same,Rice plant response rating,rice (Oryza sativa); [14],50
same,"Plant response rating, Flood, Sedge, Umbrella",[1]; [11],100
same,"Plant response rating, Sedge, Umbrella",[1]; [12],100
same,"Plant response rating, Sedge, Umbrella",[1]; [13],100
same,"Sedge, Umbrella plant response rating",[1]; [14],60
same,"Plant response rating, Foxtail, Giant",[2]; [15],98
same,"Plant response rating, Foxtail, Giant",[2]; [16],100
same,"Plant response rating, Foxtail, Giant",[2]; [17],100
same,"Plant response rating, Foxtail, Giant",[2]; [18],100
same,"Plant response rating, Foxtail, Giant",[2]; [19],0
same,"Plant response rating, Foxtail, Giant",[2]; [20],10
same,"Plant response rating, Foxtail, Giant",[2]; [21],90
same,"Foxtail, Giant plant response rating",[2]; [22],100
same,"Plant response rating, Corn",corn (Zea mays); [15],100
same,"Plant response rating, Corn",corn (Zea mays); [16],100
same,"Plant response rating, Corn",corn (Zea mays); [17],100
same,"Plant response rating, Corn",corn (Zea mays); [18],100
same,"Plant response rating, Corn",corn (Zea mays); [19],0
same,"Plant response rating, Corn",corn (Zea mays); [20],5
same,"Plant response rating, Corn",corn (Zea mays); [21],25
same,Corn plant response rating,corn (Zea mays); [22],65
same,"Plant response rating, Pigweed",[3]; [15],80
same,"Plant response rating, Pigweed",[3]; [16],98
same,"Plant response rating, Pigweed",[3]; [17],100
same,"Plant response rating, Pigweed",[3]; [18],100
same,"Plant response rating, Pigweed",[3]; [19],80
same,"Plant response rating, Pigweed",[3]; [20],95
same,"Plant response rating, Pigweed",[3]; [21],100
same,Pigweed plant response rating,[3]; [22],100
same,"Plant response rating, Surinam Grass",[4]; [15],100
same,"Plant response rating, Surinam Grass",[4]; [16],100
same,"Plant response rating, Surinam Grass",[4]; [17],100
same,"Plant response rating, Surinam Grass",[4]; [18],100
same,"Plant response rating, Surinam Grass",[4]; [19],95
same,"Plant response rating, Surinam Grass",[4]; [20],100
same,"Plant response rating, Surinam Grass",[4]; [21],100
same,Surinam Grass plant response rating,[4]; [22],100
same,"Plant response rating, Ragweed",[5]; [15],95
same,"Plant response rating, Ragweed",[5]; [16],98
same,"Plant response rating, Ragweed",[5]; [17],100
same,"Plant response rating, Ragweed",[5]; [18],100
same,"Plant response rating, Ragweed",[5]; [19],75
same,"Plant response rating, Ragweed",[5]; [20],85
same,"Plant response rating, Ragweed",[5]; [21],100
same,Ragweed plant response rating,[5]; [22],100
same,"Plant response rating, Johnsongrass",[6]; [15],100
same,"Plant response rating, Johnsongrass",[6]; [16],100
same,"Plant response rating, Johnsongrass",[6]; [17],100
same,"Plant response rating, Johnsongrass",[6]; [18],100
same,"Plant response rating, Johnsongrass",[6]; [19],65
same,"Plant response rating, Johnsongrass",[6]; [20],75
same,"Plant response rating, Johnsongrass",[6]; [21],80
same,Johnsongrass plant response rating,[6]; [22],100
same,"Plant response rating, Oat, Wild",wild oat (Avena fatua); [15],70
same,"Plant response rating, Oat, Wild",wild oat (Avena fatua); [16],85
same,"Plant response rating, Oat, Wild",wild oat (Avena fatua); [17],85
same,"Plant response rating, Oat, Wild",wild oat (Avena fatua); [18],100
same,"Plant response rating, Oat, Wild",wild oat (Avena fatua); [19],0
same,"Plant response rating, Oat, Wild",wild oat (Avena fatua); [20],0
same,"Plant response rating, Oat, Wild",wild oat (Avena fatua); [21],30
same,"Oat, Wild plant response rating",wild oat (Avena fatua); [22],30
same,"Plant response rating, Lambsquarters",[7]; [15],98
same,"Plant response rating, Lambsquarters",[7]; [16],100
same,"Plant response rating, Lambsquarters",[7]; [17],100
same,"Plant response rating, Lambsquarters",[7]; [18],100
same,"Plant response rating, Lambsquarters",[7]; [19],100
same,"Plant response rating, Lambsquarters",[7]; [20],100
same,"Plant response rating, Lambsquarters",[7]; [21],100
same,Lambsquarters plant response rating,[7]; [22],100
same,"Plant response rating, Goosegrass",[8]; [15],98
same,"Plant response rating, Goosegrass",[8]; [16],98
same,"Plant response rating, Goosegrass",[8]; [17],100
same,"Plant response rating, Goosegrass",[8]; [18],100
same,"Plant response rating, Goosegrass",[8]; [19],95
same,"Plant response rating, Goosegrass",[8]; [20],100
same,"Plant response rating, Goosegrass",[8]; [21],100
same,Goosegrass plant response rating,[8]; [22],100
same,"Plant response rating, Blackgrass",[9]; [15],40
same,"Plant response rating, Blackgrass",[9]; [16],70
same,"Plant response rating, Blackgrass",[9]; [17],80
same,"Plant response rating, Blackgrass",[9]; [18],80
same,"Plant response rating, Blackgrass",[9]; [19],0
same,"Plant response rating, Blackgrass",[9]; [20],5
same,"Plant response rating, Blackgrass",[9]; [21],30
same,Blackgrass plant response rating,[9]; [22],45
same,"Plant response rating, Foxtail, Green",[10]; [15],85
same,"Plant response rating, Foxtail, Green",[10]; [16],98
same,"Plant response rating, Foxtail, Green",[10]; [17],100
same,"Plant response rating, Foxtail, Green",[10]; [18],100
same,"Plant response rating, Foxtail, Green",[10]; [19],0
same,"Plant response rating, Foxtail, Green",[10]; [20],0
same,"Plant response rating, Foxtail, Green",[10]; [21],75
same,"Foxtail, Green plant response rating",[10]; [22],100
